Assay [1] addresses T1, α-chymotrypsin from bovine pancreas (Bos taurus, UniProt P00766).
T1 construct: purchased Sigma C4129; host or cells: bovine pancreas
Briefly: Chymotrypsin inhibition assay. In kind it is biochemical. To be noted: for IC50: α-chymotrypsin from bovine pancreas, substrate N-succinyl-Gly-Gly-Phe-p-nitroanilide, 30 min pre-incubation, triplicate, read-out: Serine protease inhibitory activity (IC50), Chymotrypsin. As to the method: (§1) Elastase assay was assessed using high-purity porcine pancreatic elastase (Elastin Products Company, EC134, 135 units/mg). The assay buffer used was 1M Tris-HCl (pH 8.0). Assay buffer (79 μL), elastase solution (75 μg/mL in assay buffer, 5 μL) and various concentrations of 1 and 2 (1 μL, dissolved in DMSO) were pre-incubated for 15 min at room temperature in a microtiter plate. After this time, 15 μL of substrate solution (2 mM N-succinyl-Ala-Ala-Ala-p-nitroanilide in assay buffer) was added to each well and the reaction was followed by measuring the absorbance at 405 nm every 30 s. Inhibition of chymotrypsin was determined using the α-chymotrypsin from bovine pancreas (Sigma, C4129, 55 units/mg). The assay buffer was 50 mM Tris-HCl, 100 mM NaCl and 1 mM CaCl2 (pH 7.8). Assay buffer (39 μL), enzyme solution (100 μg/mL in assay buffer, 10 μL), and various concentrations of 1 and 2 (1 μL, dissolved in DMSO) were pre incubated for 30 min at room temperature before substrate solution (1.5 mM N-succinyl-Gly-Gly-Phe-p-nitroanilide in assay buffer) was added. The reaction was followed by measuring the absorbance at 405 nm every 30 s for 30 min. For each assay, enzyme activity of each well was calculated using the initial slope of each progress curve, expressed as a percentage of the slope of uninhibited reaction. All assays were carried out in triplicate at ambient temperature (T = 29 °C). […] Dose–response curve fitting was done using Xlfit Excel, MathlQ Version 2.2.2 (IDBS Ltd.).

The target of assay [2] is T1, α-chymotrypsin from bovine pancreas. To be noted: cited from earlier work.
Assay [3] deals with T2, porcine pancreatic elastase (Sus scrofa, UniProt P00772).
T2 construct: purchased Elastin Products Company EC134; host or cells: porcine pancreas
Briefly: Elastase inhibition assay. In kind it is biochemical. The conditions noted are these: for IC50: porcine pancreatic elastase, substrate N-succinyl-Ala-Ala-Ala-p-nitroanilide, 15 min pre-incubation, triplicate, read-out: Serine protease inhibitory activity (IC50), Elastase. As to the method:
as §1

The structures appear in SMILES notation.

The values below come from article PMC2901826, “Intramolecular Modulation of Serine Protease Inhibitor Activity in a Marine Cyanobacterium with Antifeedant Properties” (Marine Drugs, 2010).

Usually IC50 stands for the concentration that inhibits the measured activity by half.

T2 sequence (P00772 27-266): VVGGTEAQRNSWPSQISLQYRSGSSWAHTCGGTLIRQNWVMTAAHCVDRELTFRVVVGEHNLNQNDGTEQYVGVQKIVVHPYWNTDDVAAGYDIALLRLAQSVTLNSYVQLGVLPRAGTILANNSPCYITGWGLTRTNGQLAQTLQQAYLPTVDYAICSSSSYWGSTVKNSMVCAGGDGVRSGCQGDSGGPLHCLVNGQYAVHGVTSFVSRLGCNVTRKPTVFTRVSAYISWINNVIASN

Regarding `CC(C)C[C@@H]1NC(=O)[C@@H](NC(=O)[C@@H](NC(=O)[C@H](C)NC(=O)[C@H](CCCc2ccc(O)cc2)NC(=O)[C@H](O)CO)C(C)C)[C@@H](C)OC(=O)[C@H](C(C)C)NC(=O)[C@H](Cc2ccc(O)c(Br)c2)N(C)C(=O)[C@H]([C@@H](C)O)N2C(=O)[C@H](CC[C@H]2O)NC1=O` [Largamide D (2), largamide D], the results for the IC50 in assay [1] and in assay [3] were 0.083 ± 0.008 µM and 0.045 ± 0.003 µM, respectively. In addition, in assay [2], the “chymotrypsin inhibition, previously reported” value is given as “moderate chymotrypsin inhibitor”.

`CC(C)CC1NC(=O)C(NC(=O)C(NC(=O)C(C)NC(=O)C(CCCc2ccc(O)cc2)NC(=O)C(O)CO)C(C)C)C(C)OC(=O)C(C(C)C)NC(=O)C(Cc2ccc(O)c(Br)c2)N(C)C(=O)C2C(C)OC3CCC(NC1=O)C(=O)N32` (stereo not shown) [Largamide D oxazolidine (1), largamide D oxazolidine]: the “fold reduced activity against chymotrypsin” value in assay [1] (relative to largamide D (2)) was determined as 11 fold. Also, the IC50 in assay [1] is 0.928 ± 0.093 µM; in assay [3], 1.52 ± 0.08 µM. In addition, the “fold reduced activity against elastase” value in assay [3] (relative to largamide D (2)) is on record as 33 fold.
